According to paper PMC4503722, “Novel Phenotypic Outcomes Identified for a Public Collection of Approved Drugs from a Publicly Accessible Panel of Assays” (PLoS ONE, 2015):
Like-named read-outs stand apart in the source and are kept apart here.

Experiments:
HCT116 = assay: cells; format: cell-based
hGSK3b = biological target: T1, hGSK3b (Homo sapiens, UniProt P49841); assay: Cerep LANCE kinase assay hGSK3b (S1 assay 34); format: biochemical; details: read-out: GSK3b
T1 construct: purchased Cerep (LANCE kinase assay platform, contract assay)
T1 sequence (P49841 whole entry): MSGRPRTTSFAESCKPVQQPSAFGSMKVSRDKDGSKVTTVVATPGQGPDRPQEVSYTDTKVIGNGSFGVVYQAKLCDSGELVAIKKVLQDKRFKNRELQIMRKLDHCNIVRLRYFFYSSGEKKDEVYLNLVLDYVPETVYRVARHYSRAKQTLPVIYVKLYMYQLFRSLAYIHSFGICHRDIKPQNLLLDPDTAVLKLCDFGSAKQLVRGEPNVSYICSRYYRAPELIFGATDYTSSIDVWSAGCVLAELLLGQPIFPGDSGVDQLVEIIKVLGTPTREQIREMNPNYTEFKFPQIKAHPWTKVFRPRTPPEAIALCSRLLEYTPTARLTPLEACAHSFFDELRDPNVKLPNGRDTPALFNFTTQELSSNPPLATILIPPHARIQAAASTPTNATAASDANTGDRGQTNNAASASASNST

hp70S6K1 (RPS6KB1) = biological target: T2, hp70S6K1 (RPS6KB1) (Homo sapiens, UniProt P23443); assay: Cerep LANCE kinase assay hp70S6K1 (S1 assay 31); format: biochemical; details: read-out: p70S6K1
T2 construct: purchased Cerep (LANCE kinase assay platform, contract assay)
T2 sequence (P23443 whole entry): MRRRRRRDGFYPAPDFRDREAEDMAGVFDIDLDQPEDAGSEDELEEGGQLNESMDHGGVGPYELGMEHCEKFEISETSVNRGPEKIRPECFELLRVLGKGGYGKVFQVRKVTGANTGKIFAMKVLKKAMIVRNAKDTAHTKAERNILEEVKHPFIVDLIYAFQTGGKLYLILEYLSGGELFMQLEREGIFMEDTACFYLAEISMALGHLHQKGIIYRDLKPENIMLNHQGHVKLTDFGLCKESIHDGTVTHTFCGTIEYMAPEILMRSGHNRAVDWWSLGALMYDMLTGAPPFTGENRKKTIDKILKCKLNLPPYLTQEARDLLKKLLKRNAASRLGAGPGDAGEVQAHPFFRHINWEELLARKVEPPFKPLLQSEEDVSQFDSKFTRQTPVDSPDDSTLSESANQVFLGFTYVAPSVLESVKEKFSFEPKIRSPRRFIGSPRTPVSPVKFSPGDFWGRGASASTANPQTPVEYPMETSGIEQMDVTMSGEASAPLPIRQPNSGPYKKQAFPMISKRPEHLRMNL

[1] = test system: endothelial tube formation in co-cultures of ECFCs and ADSCs treated with VEGF; assay: cells; format: cell-based, human; details: Homo sapiens
RKO = assay: cells; format: cell-based
NCI-H716 cells = assay: cells; format: cell-based, Human; details: Homo sapiens
HT-29 = assay: cells; format: cell-based
HeLa cells = assay: cells; format: cell-based
[2] = test system: HCT116 cells treated with a GSK3β inhibitor; assay: cells; format: cell-based; details: Homo sapiens
hFLT3 = biological target: T3, hFLT3 (Homo sapiens, UniProt P36888); assay: Cerep LANCE kinase assay hFLT3 (S1 assay 35); format: biochemical; details: read-out: FLT3
T3 construct: purchased Cerep (LANCE kinase assay platform, contract assay)
T3 sequence (P36888 27-993): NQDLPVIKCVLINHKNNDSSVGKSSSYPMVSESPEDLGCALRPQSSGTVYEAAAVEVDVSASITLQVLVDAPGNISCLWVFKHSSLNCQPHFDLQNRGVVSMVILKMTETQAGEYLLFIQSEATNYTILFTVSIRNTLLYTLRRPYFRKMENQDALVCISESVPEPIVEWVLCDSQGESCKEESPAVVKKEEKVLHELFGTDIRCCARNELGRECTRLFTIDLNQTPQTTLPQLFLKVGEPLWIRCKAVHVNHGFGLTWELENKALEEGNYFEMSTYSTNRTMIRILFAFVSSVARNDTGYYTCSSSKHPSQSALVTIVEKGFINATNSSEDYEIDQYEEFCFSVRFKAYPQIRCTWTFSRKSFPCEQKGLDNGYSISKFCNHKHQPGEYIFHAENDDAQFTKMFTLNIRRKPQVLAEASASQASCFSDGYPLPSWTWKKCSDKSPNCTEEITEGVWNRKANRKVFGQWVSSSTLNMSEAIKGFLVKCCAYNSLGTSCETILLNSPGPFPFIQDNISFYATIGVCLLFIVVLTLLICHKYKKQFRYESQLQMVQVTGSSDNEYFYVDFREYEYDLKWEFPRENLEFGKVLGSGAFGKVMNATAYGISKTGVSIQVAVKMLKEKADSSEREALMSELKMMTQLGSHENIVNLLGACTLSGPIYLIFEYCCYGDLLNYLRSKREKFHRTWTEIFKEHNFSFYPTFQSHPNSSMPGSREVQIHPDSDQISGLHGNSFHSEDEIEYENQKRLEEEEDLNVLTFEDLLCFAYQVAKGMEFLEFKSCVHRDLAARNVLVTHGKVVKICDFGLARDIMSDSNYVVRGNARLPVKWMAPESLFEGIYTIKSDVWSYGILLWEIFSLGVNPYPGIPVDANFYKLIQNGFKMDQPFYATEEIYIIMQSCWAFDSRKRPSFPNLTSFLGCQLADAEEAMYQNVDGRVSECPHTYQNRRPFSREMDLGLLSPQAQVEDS

INS-1E cells = assay: cells; format: cell-based, rat; details: Rattus norvegicus, INS-1E
DLD-1 = assay: cells; format: cell-based
SNU-C1 = assay: cells; format: cell-based; details: Homo sapiens
hJAK2 = biological target: T4, hJAK2 (Homo sapiens, UniProt O60674); assay: Cerep LANCE kinase assay hJAK2 (S1 assay 33); format: biochemical; details: read-out: JAK2
T4 construct: purchased Cerep (LANCE kinase assay platform, contract assay)
T4 sequence (O60674 whole entry): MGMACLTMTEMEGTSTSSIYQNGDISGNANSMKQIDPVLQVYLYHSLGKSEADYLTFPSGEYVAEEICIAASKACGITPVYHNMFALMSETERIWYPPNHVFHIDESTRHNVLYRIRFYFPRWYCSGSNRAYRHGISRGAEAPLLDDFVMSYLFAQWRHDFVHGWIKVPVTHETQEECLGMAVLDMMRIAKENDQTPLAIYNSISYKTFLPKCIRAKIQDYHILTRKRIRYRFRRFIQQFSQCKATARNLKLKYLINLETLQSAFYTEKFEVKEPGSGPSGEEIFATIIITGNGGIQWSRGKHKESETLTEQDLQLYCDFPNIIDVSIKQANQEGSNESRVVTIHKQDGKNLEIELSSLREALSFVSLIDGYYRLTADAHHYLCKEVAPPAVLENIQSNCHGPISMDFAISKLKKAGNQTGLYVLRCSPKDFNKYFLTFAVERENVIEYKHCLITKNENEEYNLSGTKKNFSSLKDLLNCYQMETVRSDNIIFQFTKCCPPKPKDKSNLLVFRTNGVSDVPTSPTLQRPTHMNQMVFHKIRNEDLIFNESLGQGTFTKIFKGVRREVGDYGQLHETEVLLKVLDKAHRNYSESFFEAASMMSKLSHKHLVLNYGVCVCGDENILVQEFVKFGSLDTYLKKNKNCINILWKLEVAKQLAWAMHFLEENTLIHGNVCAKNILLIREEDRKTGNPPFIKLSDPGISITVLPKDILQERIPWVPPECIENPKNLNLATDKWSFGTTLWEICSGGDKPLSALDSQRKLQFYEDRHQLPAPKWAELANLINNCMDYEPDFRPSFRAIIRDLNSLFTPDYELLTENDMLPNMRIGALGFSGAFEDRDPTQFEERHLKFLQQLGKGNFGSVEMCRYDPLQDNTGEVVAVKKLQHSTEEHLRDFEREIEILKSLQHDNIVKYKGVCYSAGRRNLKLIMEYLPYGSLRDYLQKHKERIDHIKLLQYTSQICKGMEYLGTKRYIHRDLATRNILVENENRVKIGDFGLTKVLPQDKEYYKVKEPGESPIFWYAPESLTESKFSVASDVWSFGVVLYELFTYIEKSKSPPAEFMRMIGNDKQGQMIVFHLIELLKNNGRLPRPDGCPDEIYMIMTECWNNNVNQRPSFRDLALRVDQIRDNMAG

[3] = test system: nuclear β-catenin in C2C12 cells; assay: cells; format: cell-based; details: Mus musculus
hKDR = biological target: T5, hKDR (Homo sapiens, UniProt P35968); assay: Cerep LANCE kinase assay hKDR (S1 assay 32); format: biochemical; details: read-out: KDR
T5 construct: purchased Cerep (LANCE kinase assay platform, contract assay)
T5 sequence (P35968 20-1356): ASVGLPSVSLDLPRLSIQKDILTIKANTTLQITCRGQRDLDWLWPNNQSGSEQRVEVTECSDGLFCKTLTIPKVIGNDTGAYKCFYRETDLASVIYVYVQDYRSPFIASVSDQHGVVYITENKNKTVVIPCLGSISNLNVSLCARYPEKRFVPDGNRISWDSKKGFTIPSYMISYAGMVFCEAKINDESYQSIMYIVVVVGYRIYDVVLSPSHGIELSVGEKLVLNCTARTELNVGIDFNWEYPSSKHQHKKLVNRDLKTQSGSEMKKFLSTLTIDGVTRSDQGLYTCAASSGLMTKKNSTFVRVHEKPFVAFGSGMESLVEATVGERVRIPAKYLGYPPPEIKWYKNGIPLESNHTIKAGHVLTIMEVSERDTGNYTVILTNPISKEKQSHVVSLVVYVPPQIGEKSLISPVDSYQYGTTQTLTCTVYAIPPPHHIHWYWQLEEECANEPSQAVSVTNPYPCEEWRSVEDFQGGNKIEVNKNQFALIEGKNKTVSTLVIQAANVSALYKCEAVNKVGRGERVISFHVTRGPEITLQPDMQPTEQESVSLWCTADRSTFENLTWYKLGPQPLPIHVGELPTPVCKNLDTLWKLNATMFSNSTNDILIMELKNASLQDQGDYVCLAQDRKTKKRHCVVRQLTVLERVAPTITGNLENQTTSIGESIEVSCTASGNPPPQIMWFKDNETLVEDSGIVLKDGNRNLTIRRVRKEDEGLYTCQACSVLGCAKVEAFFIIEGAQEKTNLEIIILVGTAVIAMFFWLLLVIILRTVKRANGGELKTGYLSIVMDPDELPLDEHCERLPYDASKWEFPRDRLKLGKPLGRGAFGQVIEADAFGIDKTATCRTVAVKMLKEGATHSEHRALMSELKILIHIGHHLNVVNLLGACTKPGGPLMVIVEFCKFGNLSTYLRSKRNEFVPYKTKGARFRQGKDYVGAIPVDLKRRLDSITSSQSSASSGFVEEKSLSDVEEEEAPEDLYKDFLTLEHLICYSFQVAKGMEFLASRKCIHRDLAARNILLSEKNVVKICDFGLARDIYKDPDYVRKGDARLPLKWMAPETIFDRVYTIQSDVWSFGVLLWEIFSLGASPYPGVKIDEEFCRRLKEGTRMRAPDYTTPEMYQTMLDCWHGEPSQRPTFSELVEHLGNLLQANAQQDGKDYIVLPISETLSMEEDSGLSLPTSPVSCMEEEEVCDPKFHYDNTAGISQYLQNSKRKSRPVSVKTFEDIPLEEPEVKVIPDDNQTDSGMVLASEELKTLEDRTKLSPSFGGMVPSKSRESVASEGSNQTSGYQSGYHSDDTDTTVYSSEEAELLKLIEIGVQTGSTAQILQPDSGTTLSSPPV

SW480 = assay: cells; format: cell-based
Colo320 = assay: cells; format: cell-based; details: Homo sapiens, COLO 320, read-out: Basal_Viability ATP Colo 320
[4] = IC50 / EC50, endothelial tube area, ADSC/ECFC co-culture, read-out: Anti-Angiogenesis
[5] = NCI-H716, read-out: GLP1 sec. EC50
[6] = HCT-116, read-out: HCT-116 (GSK3β) viab. IC50, Table 2, GSK3β inhibitor LY2090314 20 nM, 72 h, Cell TiterGlo, 20 coded
[7] = HCT-116, GSK3b inhibitor pretreated, read-out: GSK3b inh pretreated_Viability ATP HCT116
[8] = Homo sapiens, HCT-116, read-out: Basal_Viability ATP HCT116
[9] = Homo sapiens, SW480, read-out: Basal_Viability ATP SW480
[10] = Homo sapiens, RKO, read-out: Basal_Viability ATP RKO
[11] = NCI-H716, read-out: GLP 1 Secretion
[12] = Homo sapiens, HT-29, read-out: Basal_Viability ATP HT-29
[13] = Homo sapiens, HeLa, read-out: CellCycle G2/M
[14] = HCT-116, read-out: GSK3b inh pretreated_Viability ATP HCT116
[15] = Homo sapiens, DLD-1, read-out: Basal_Viability ATP DLD-1

SMILES | IC50 (hGSK3b) | IC50 (hp70S6K1 (RPS6KB1)) | IC50 [1, 4] | IC50 ([1]; read-out: Anti-Angio IC50) | EC50 (NCI-H716 cells; [5]) | IC50 [2, 6] | IC50 [2, 7] | IC50 (hFLT3) | EC50 (INS-1E cells; read-out: Ins. sec. EC50) | IC50 (hJAK2) | EC50 ([3]; C2C12, read-out: Wnt pot. EC50) | IC50 (hKDR) | IC50 (HCT116; [8]) | IC50 (SW480; [9]) | IC50 ([1]; read-out: Anti-Angiogenesis) | IC50 (RKO; [10]) | EC50 (NCI-H716 cells; [11]) | IC50 (HT-29; [12]) | EC50 (HeLa cells; [13]) | IC50 [2, 14] | also measured
CC(C)C[C@H](NC(=O)[C@H](CCc1ccccc1)NC(=O)CN1CCOCC1)C(=O)N[C@@H](Cc1ccccc1)C(=O)N[C@@H](CC(C)C)C(=O)[C@@]1(C)CO1 [carfilzomib, reference compound] | > 20000 nM | > 20000 nM | 20.4 nM | 20 nM | > 10000 nM | 2 nM | 1.73 nM | > 20000 nM | > 10000 nM | > 20000 nM | 15 nM | > 20000 nM |  |  |  |  |  |  |  |  | IC50 (HCT116; Homo sapiens, HCT-116, 72 h, read-out: HCT-116 viab. IC50, Table 2; basal; 72 h, Cell TiterGlo, non-adherent; 20 coded): 6 nM; IC50 (HCT116; Homo sapiens, HCT-116, basal; read-out: Basal_Viability ATP HCT116): 5.58 nM; IC50 (RKO; Homo sapiens, RKO; Table 2; 72 h, Cell TiterGlo, non-adherent; 20 coded; read-out: RKO viab. IC50): 4 nM; IC50 (RKO; Homo sapiens, RKO; read-out: Basal_Viability ATP RKO): 3.94 nM; IC50 (HT-29; Homo sapiens, HT-29; Table 2; 72 h, Cell TiterGlo, non-adherent; 20 coded; read-out: HT-29 viab. IC50): 3 nM; IC50 (HT-29; Homo sapiens, HT-29; read-out: Basal_Viability ATP HT-29): 3.18 nM; EC50 (HeLa cells; Homo sapiens, HeLa, IC50 / EC50; HeLa; read-out: CellCycle G2/M): > 10000 nM; IC50 (DLD-1; Homo sapiens, DLD-1, 72 h, Table 2; 72 h, Cell TiterGlo, non-adherent; 20 coded; read-out: DLD-1 viab. IC50): 7 nM; IC50 (DLD-1; Homo sapiens, DLD-1, basal; read-out: Basal_Viability ATP DLD-1): 6.96 nM; IC50 (SNU-C1; SNU-C1, 72 h, Table 2, 72 h, Cell TiterGlo, non-adherent, 20 coded, read-out: SNU-C1 viab. IC50): 1 nM; IC50 (SNU-C1; SNU-C1, basal, read-out: Basal_Viability ATP SNU-C1): 1.47 nM; EC50 ([3]; C2C12, IC50 / EC50, C2C12 beta-catenin translocation, read-out: Wnt Pathway): 15.2 nM
CC(C)(C)[C@H]1CC[C@H](CC2=C(O)C(=O)c3ccccc3C2=O)CC1 [Buparvaquone] | > 20000 nM | > 20000 nM |  |  |  |  |  | > 20000 nM |  | > 20000 nM |  | > 20000 nM | 227 nM | 205 nM | 1960 nM | 133 nM | > 10000 nM | 3390 nM | > 10000 nM | 66.7 nM | EC50 (INS-1E cells; read-out: Insulin Secretion): > 10000 nM; IC50 (Colo320): 255 nM; IC50 (DLD-1; [15]): 218 nM; EC50 ([3]; C2C12, read-out: Wnt Pathway): > 10000 nM
COC(=O)Nc1nc2ccc([S+]([O-])c3ccccc3)cc2[nH]1 (stereo not drawn) [Oxfendazole] |  |  |  |  |  |  |  |  |  |  |  |  | 1 nM | > 20000 nM | 288 nM | 1 nM | > 10000 nM | > 20000 nM | 331 nM | 1 nM | IC50 (hGSK3b; kinase assay): > 20000 nM; IC50 (hp70S6K1 (RPS6KB1); kinase assay): > 20000 nM; IC50 (hFLT3; kinase assay): > 20000 nM; EC50 (INS-1E cells; read-out: Insulin Secretion): > 10000 nM; IC50 (DLD-1; [15]): > 20000 nM; IC50 (hJAK2; kinase assay): > 20000 nM; EC50 ([3]; C2C12, read-out: Wnt Pathway): 468 nM; IC50 (hKDR; kinase assay): > 20000 nM
C=C(C)[C@H]1Cc2c(ccc3c2O[C@@H]2COc4cc(OC)c(OC)cc4[C@@H]2C3=O)O1 [rotenone, reference compound] | > 20000 nM | > 20000 nM | 25.7 nM | 26 nM | > 10000 nM | 67 nM | 66.7 nM | > 20000 nM | > 10000 nM | > 20000 nM | 250 nM | > 20000 nM |  |  |  |  |  |  |  |  | IC50 (HCT116; Homo sapiens, HCT-116, read-out: HCT-116 viab. IC50; Table 2; basal; 72 h, Cell TiterGlo, non-adherent; 20 coded): 1200 nM; IC50 (HCT116; Homo sapiens, HCT-116; read-out: Basal_Viability ATP HCT116): 1180 nM; IC50 (SW480; Homo sapiens, SW480; Table 2; 72 h, Cell TiterGlo, non-adherent; 20 coded; read-out: SW480 viab. IC50): 160 nM; IC50 (SW480; Homo sapiens, SW480; read-out: Basal_Viability ATP SW480): 162 nM; G2/M IC50 / EC50 (HeLa cells): 310 nM; EC50 (HeLa cells; Homo sapiens; IC50 / EC50; HeLa; read-out: CellCycle G2/M): 311 nM; IC50 (DLD-1; Homo sapiens, DLD-1; Table 2; 72 h, Cell TiterGlo, non-adherent; 20 coded; read-out: DLD-1 viab. IC50): 350 nM; IC50 (DLD-1; Homo sapiens, DLD-1; read-out: Basal_Viability ATP DLD-1): 350 nM; EC50 ([3]; IC50 / EC50, C2C12 beta-catenin translocation, read-out: Wnt Pathway): 254 nM
